Measurements: patent US9254280B2, “Medical food for cognitive decline” (The Regents of the University of California, priority 2011, dated 2016)

Tests used:
[1] = system: 3×AD Tg mice; assay: Morris Water Maze, hidden platform, diet supplement study; assay type: in vivo
Text: (§1) Fisetin, a natural flavonoid enriched in strawberries, is neuroprotective and can improve cognitive function in various animal models including aging mice and beta amyloid plaque accumulating transgenic mice. We have tested 0.6% DHA alone, 500 ppm fisetin alone and DHA+fisetin in combination delivered as a food supplement (in chow) to older 3×AD Tg mice with combined amyloid and tau pathology. The study ran from ˜9 months to 13-14 months of age.

[2] = system: 3×AD Tg mice; assay: Probe test (platform removed, time in target quadrant); assay type: in vivo; settings: 60 seconds swim, dietary supplement
Text: as §1
FIG. 2. […] In this test the platform is removed, and the mice are allowed to swim for 60 seconds, while the time in the target quadrant is quantified.

O=c1c(O)c(-c2ccc(O)c(O)c2)oc2cc(O)ccc12 [fisetin, 2-(3,4-dihydroxyphenyl)-3,7-dihydroxy-4H-chromen-4-one]
Cognitive deficits ([1]; 0.6% DHA, 500 ppm fisetin, alone or combined, in chow, older 3×AD Tg mice, ~9 to 13-14 months of age): not by DHA alone or fisetin alone | time (latency) to find a hidden platform with additional blocks of training ([1]; 12-13 month old 3×AD Tg mice on control bad (high safflower oil) diet): no improvement | retention in the probe test (time in the target quadrant) [2]: also improved retention
